Source: paper PMC12144822 (Parasites & Vectors, 2025)
Where two headings read alike, the source gives them in different places.

How the values were obtained:
[1] = tested on: Hsa-GABARs; assay: Voltage-clamp inhibition, summary over the six human subunit combinations; conditions: for average GABA current inhibition: at 30 μM, average over Hsa-GABARs
Method: (§1) Defoliculated X. laevis oocytes ordered from Ecocyte Bioscience (Dortmund, Germany) were microinjected with 15–25 nl of cRNA solution (5–50 ng/μl) per oocyte using an automated injector (Roboinject; Multi Channel Systems MCS GmbH, Reutlingen, Germany) and then incubated at 18 °C. All recordings were made 1–5 days post-cRNA injection and were performed at 18 ± 4 °C. Cells were superfused with OR2 medium (NaCl 88 mM, KCl 2.5 mM, HEPES 5 mM, CaCl2•2H2O 1.8 mM, MgCl2•7H2O 1.0 mM, pH 7.4). To ensure that γ2 subunits were integrated into the heteropentamers, we injected fivefold more γ2 than the other subunit cRNAs. Diazepam is a positive allosteric modulator of GABAR only if γ2 subunits are present. Therefore, we used this method to confirm the presence of human and dog GABAA receptor containing the γ2 subunit.
(§2) Voltage-clamp measurements were performed as described by Rufener et al.. Oocytes were impaled with two electrodes filled with 3 M KCl, and their membrane potentials were maintained at − 80 mV throughout the experiment. […] Recordings were performed using an automated process equipped with standard two-electrode voltage-clamp configuration (HiClamp system; Multi Channel Systems MCS GmbH). Data were filtered at 10 Hz, captured at 100 Hz and analyzed using proprietary data acquisition and analysis software in MATLAB (Mathworks Inc., Natick, MA, USA). Additional analyses were performed using Excel (Microsoft, Redmond, WA, USA). […] Graphing the maximum inward currents against the log of agonist concentration produces typical concentration-activation and concentration-inhibition curves, which can be accurately described using individual Hill equations. The concentration-activation curves were fitted using the following equation: Y=100/1+10^H(logEC50-X) where Y is the normalized response, logEC50 is the logarithm of the concentration of agonist eliciting half-maximal current amplitude, X is the log of the dose or concentration, and H is the slope factor or Hill slope. The same equation was used for the concentration-inhibition curves but logEC50 was replaced by logIC50 (half-maximal inhibitory concentration).
(§3) The agonist and the drug were then washed off for 15 s and the oocyte was exposed again to the same drug concentration for 25 s before increasing to the next concentration.

[2] = set-up: method as in PMID 33733534; conditions: cited from earlier work; for maximum plasma concentration: dose of 25 mg/kg body weight
[3] = tested on: human and canine GABARs; assay: Voltage-clamp inhibition, summary over human and canine receptors; assay type: cell-based; conditions: tested up to 30 μM
Method: as §1, §2, §3

[4] = target: Hsa-GABA α3β2γ2 (Homo sapiens, UniProt P18507+P34903+P47870); assay: Two-electrode voltage-clamp inhibition of GABA current, receptor expressed in Xenopus oocytes; conditions: Xenopus oocytes, −80 mV, 60 s pre-exposure, co-applied with GABA 1 µM (near EC10)
Source text: (§4) Complementary DNA (cDNA) encoding for the human GABAA proteins α1 (NM_001127645.2), α2 (NM_001377146.1), α3 (KJ620007.1), α4 (NM_000809.4), α5 (NM_000810.4), α6 (NM_000811.3), β2 (XM_054352312.1), β3 (M82919.1), γ2 (NM_000816.3) and δ (NM_000815.5) were ordered from Genewiz (www.genewiz.com; Leipzig, Germany); for each gene, GenBank accession numbers are provided in parentheses. When necessary, silent mutations were introduced to break NheI or XhoI internal restriction sites. The corresponding open reading frames (ORF) were cloned into the pT7-TS transcription vector (introducing X. laevis β-globin untranslated cDNA to the 5’ and 3’ ends of the gene), following a procedure described in detail in a previous publication. The same process was used to obtain cDNA encoding canine GABAA proteins α4 (XM_025435560.1), α6 (XM_022417729.1) and δ (XM_005620414.2). Gene α2 (XM_025435664.1), α3 (XM_549343.5), α5 (XM_545805.6) and β3 (XM_025437408.1) were obtained by PCR; GenBank reference accession numbers are provided in parentheses. RNA extraction, cDNA synthesis and PCR amplification were performed as described previously. Total RNA was extracted from a piece of dog brain (Beagle breed; Canis lupus familiaris) from which 1 µg of total RNA (DNase-treated) was reverse-transcribed to cDNA using a (dT)30 primer and SuperScript III Reverse Transcriptase (Invitrogen, Thermo Fisher Scientific, Waltham, MA, USA). Gene-specific primers (Additional file 1: Table S1) were designed using Primer 3 software (http://frodo.wi.mit.edu/). […] The cycling conditions were: 98 °C for 30 s; then 38 cycles of 98 °C for 10 s, 58 °C for 30 s and 72 °C for 90 s; followed by 72 °C for 5 min. The dog subunits α1 (XM_546261.5), β2 (XM_014113040.1) and γ2 (XM_546259.5) had been previously amplified and described in a study by Rufener et al..
as §1
as §2, with “equations.” for “equations. The concentration-activation curves were fitted using the following equation: Y=100/1+10^H(logEC50-X) where Y is the normalized response, logEC50 is the logarithm of the concentration of agonist eliciting half-maximal current amplitude, X is the log of the dose or concentration, and H is the slope factor or Hill slope. The same equation was used for the concentration-inhibition curves but logEC50 was replaced by logIC50 (half-maximal inhibitory concentration).”

[5] = target: Hsa-GABA α2β3γ2 (Homo sapiens, UniProt P18507+P28472+P47869); assay: as above; conditions: Xenopus oocytes, −80 mV, 60 s pre-exposure, co-applied with GABA 1 µM (near EC10)
Source text: as §4, §1
as §2, with “equations.” for “equations. The concentration-activation curves were fitted using the following equation: Y=100/1+10^H(logEC50-X) where Y is the normalized response, logEC50 is the logarithm of the concentration of agonist eliciting half-maximal current amplitude, X is the log of the dose or concentration, and H is the slope factor or Hill slope. The same equation was used for the concentration-inhibition curves but logEC50 was replaced by logIC50 (half-maximal inhibitory concentration).”

[6] = target: Hsa-GABA α6β2γ2 (Homo sapiens, UniProt P18507+P47870+Q16445); assay: as above; conditions: for IC50: Xenopus oocytes, −80 mV, 60 s pre-exposure, co-applied with GABA 0.3 µM (near EC10)
Hsa-GABA α6β2γ2, sequence (Q16445 20-453): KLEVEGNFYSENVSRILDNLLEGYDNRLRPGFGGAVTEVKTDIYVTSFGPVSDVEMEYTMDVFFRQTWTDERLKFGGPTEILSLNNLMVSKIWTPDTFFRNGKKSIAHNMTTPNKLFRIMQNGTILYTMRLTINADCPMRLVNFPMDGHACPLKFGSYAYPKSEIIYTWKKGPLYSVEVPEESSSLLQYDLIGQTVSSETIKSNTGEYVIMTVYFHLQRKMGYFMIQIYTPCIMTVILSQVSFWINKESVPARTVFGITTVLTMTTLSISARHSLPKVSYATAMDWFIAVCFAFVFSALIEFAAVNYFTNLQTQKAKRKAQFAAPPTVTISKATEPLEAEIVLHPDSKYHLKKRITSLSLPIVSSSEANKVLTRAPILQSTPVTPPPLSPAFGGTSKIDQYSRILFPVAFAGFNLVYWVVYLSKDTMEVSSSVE
Hsa-GABA α6β2γ2, sequence (P47870 26-474 isoform P47870-1 limits assumed): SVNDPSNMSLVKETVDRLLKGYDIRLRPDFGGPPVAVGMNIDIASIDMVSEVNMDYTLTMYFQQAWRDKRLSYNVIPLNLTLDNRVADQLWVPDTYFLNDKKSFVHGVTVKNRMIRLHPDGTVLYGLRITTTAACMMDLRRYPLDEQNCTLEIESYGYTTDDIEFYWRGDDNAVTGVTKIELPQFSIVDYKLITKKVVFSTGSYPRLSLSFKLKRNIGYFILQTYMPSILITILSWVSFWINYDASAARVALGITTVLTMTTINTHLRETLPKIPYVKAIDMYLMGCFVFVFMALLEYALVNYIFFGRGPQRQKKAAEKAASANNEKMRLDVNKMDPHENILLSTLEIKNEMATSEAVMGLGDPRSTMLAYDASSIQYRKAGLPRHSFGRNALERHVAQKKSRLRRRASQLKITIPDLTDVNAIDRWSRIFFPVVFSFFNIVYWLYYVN
Hsa-GABA α6β2γ2, sequence (P18507 40-467 isoform P18507-1 limits assumed): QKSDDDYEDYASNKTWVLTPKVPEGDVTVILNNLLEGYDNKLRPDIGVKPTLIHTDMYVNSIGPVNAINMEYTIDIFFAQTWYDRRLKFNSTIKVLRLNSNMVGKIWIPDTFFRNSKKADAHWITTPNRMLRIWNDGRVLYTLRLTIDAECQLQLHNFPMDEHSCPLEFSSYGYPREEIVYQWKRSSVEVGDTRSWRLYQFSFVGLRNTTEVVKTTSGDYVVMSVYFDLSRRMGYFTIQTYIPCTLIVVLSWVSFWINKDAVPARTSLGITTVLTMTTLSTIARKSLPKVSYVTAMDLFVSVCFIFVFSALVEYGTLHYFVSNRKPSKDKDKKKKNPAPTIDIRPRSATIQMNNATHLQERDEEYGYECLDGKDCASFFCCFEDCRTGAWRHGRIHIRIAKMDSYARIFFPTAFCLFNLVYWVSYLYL
Source text: as §4, §1
as §2, with “equations.” for “equations. The concentration-activation curves were fitted using the following equation: Y=100/1+10^H(logEC50-X) where Y is the normalized response, logEC50 is the logarithm of the concentration of agonist eliciting half-maximal current amplitude, X is the log of the dose or concentration, and H is the slope factor or Hill slope. The same equation was used for the concentration-inhibition curves but logEC50 was replaced by logIC50 (half-maximal inhibitory concentration).”

[7] = target: Hsa-GABA α5β2γ2 (Homo sapiens, UniProt P18507+P31644+P47870); assay: as above; conditions: for IC50: Xenopus oocytes, −80 mV, 60 s pre-exposure, co-applied with GABA 0.3 µM (near EC10)
Hsa-GABA α5β2γ2, sequence (P31644 32-462): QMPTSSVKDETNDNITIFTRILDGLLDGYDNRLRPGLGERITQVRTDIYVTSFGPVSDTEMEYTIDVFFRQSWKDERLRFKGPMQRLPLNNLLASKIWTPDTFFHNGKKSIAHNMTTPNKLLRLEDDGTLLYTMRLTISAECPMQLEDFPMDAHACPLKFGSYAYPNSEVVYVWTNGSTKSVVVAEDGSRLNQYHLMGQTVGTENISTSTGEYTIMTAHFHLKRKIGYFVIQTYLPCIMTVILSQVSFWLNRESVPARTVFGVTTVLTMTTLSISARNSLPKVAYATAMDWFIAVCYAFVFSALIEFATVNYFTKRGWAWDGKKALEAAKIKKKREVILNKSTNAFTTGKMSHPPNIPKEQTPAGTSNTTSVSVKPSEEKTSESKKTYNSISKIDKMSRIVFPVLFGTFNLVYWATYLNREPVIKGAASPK
Hsa-GABA α5β2γ2, sequence (P47870 26-474 isoform P47870-1 limits assumed): as the sequence (P47870 26-474 isoform P47870-1 limits assumed) above
Hsa-GABA α5β2γ2, sequence (P18507 40-467 isoform P18507-1 limits assumed): as the sequence (P18507 40-467 isoform P18507-1 limits assumed) above
Source text: as §4, §1
as §2, with “equations.” for “equations. The concentration-activation curves were fitted using the following equation: Y=100/1+10^H(logEC50-X) where Y is the normalized response, logEC50 is the logarithm of the concentration of agonist eliciting half-maximal current amplitude, X is the log of the dose or concentration, and H is the slope factor or Hill slope. The same equation was used for the concentration-inhibition curves but logEC50 was replaced by logIC50 (half-maximal inhibitory concentration).”

[8] = target: Hsa-GABA α2β2γ2 (Homo sapiens, UniProt P18507+P47869+P47870); assay: as above; conditions: for IC50: Xenopus oocytes, −80 mV, 60 s pre-exposure, co-applied with GABA 3 µM (near EC10)
Hsa-GABA α2β2γ2, sequence (P47869 29-451): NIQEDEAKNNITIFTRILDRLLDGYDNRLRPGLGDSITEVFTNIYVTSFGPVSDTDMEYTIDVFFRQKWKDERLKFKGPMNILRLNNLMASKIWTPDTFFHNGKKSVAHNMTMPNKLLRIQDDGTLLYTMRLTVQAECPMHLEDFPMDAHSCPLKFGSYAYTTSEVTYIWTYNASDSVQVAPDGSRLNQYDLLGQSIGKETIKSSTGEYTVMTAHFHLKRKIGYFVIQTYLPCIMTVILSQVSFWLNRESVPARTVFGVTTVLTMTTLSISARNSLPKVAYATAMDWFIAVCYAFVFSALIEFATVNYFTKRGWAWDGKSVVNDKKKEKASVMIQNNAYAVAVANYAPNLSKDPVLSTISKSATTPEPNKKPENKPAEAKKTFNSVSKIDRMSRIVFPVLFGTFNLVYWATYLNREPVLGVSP
Hsa-GABA α2β2γ2, sequence (P47870 26-474 isoform P47870-1 limits assumed): as the sequence (P47870 26-474 isoform P47870-1 limits assumed) above
Hsa-GABA α2β2γ2, sequence (P18507 40-467 isoform P18507-1 limits assumed): as the sequence (P18507 40-467 isoform P18507-1 limits assumed) above
Source text: as §4, §1
as §2, with “equations.” for “equations. The concentration-activation curves were fitted using the following equation: Y=100/1+10^H(logEC50-X) where Y is the normalized response, logEC50 is the logarithm of the concentration of agonist eliciting half-maximal current amplitude, X is the log of the dose or concentration, and H is the slope factor or Hill slope. The same equation was used for the concentration-inhibition curves but logEC50 was replaced by logIC50 (half-maximal inhibitory concentration).”

[9] = target: Clu-GABA α1β2γ2 (Canis lupus familiaris, UniProt A0A2H4NNI8+A0A8I3RPG5+E2RSQ0); assay: as above; assay type: cell-based; conditions: Xenopus oocytes, −80 mV, 60 s pre-exposure, co-applied with GABA 1 µM (near EC10)
Source text: as §4, §1
as §2, with “equations.” for “equations. The concentration-activation curves were fitted using the following equation: Y=100/1+10^H(logEC50-X) where Y is the normalized response, logEC50 is the logarithm of the concentration of agonist eliciting half-maximal current amplitude, X is the log of the dose or concentration, and H is the slope factor or Hill slope. The same equation was used for the concentration-inhibition curves but logEC50 was replaced by logIC50 (half-maximal inhibitory concentration).”

[10] = target: Clu-GABA α2β2γ2 (Canis lupus familiaris, UniProt A0A8I3RPG5+A0A8I3S1N5+E2RSQ0); assay: as above; assay type: cell-based; conditions: Xenopus oocytes, −80 mV, 60 s pre-exposure, co-applied with GABA 5 µM (near EC10)
Source text: as §4, §1
as §2, with “equations.” for “equations. The concentration-activation curves were fitted using the following equation: Y=100/1+10^H(logEC50-X) where Y is the normalized response, logEC50 is the logarithm of the concentration of agonist eliciting half-maximal current amplitude, X is the log of the dose or concentration, and H is the slope factor or Hill slope. The same equation was used for the concentration-inhibition curves but logEC50 was replaced by logIC50 (half-maximal inhibitory concentration).”

[11] = target: Clu-GABA α3β2γ2 (Canis lupus familiaris, UniProt A0A8I3PRS3+A0A8I3RPG5+E2RSQ0); assay: as above; assay type: cell-based; conditions: Xenopus oocytes, −80 mV, 60 s pre-exposure, co-applied with GABA 0.5 µM (near EC10)
Source text: as §4, §1
as §2, with “equations.” for “equations. The concentration-activation curves were fitted using the following equation: Y=100/1+10^H(logEC50-X) where Y is the normalized response, logEC50 is the logarithm of the concentration of agonist eliciting half-maximal current amplitude, X is the log of the dose or concentration, and H is the slope factor or Hill slope. The same equation was used for the concentration-inhibition curves but logEC50 was replaced by logIC50 (half-maximal inhibitory concentration).”

[12] = target: Clu-GABA α2β3γ2 (Canis lupus familiaris, UniProt A0A8I3NUI4+A0A8I3S1N5+E2RSQ0); assay: as above; assay type: cell-based; conditions: Xenopus oocytes, −80 mV, 60 s pre-exposure, co-applied with GABA 1 µM (near EC10)
Source text: as §4, §1
as §2, with “equations.” for “equations. The concentration-activation curves were fitted using the following equation: Y=100/1+10^H(logEC50-X) where Y is the normalized response, logEC50 is the logarithm of the concentration of agonist eliciting half-maximal current amplitude, X is the log of the dose or concentration, and H is the slope factor or Hill slope. The same equation was used for the concentration-inhibition curves but logEC50 was replaced by logIC50 (half-maximal inhibitory concentration).”

[13] = target: Clu-GABA α5β2γ2 (Canis lupus familiaris, UniProt A0A8I3PC22+A0A8I3RPG5+E2RSQ0); assay: as above; assay type: cell-based; conditions: Xenopus oocytes, −80 mV, 60 s pre-exposure, co-applied with GABA 1 µM (near EC10)
Source text: as §4, §1
as §2, with “equations.” for “equations. The concentration-activation curves were fitted using the following equation: Y=100/1+10^H(logEC50-X) where Y is the normalized response, logEC50 is the logarithm of the concentration of agonist eliciting half-maximal current amplitude, X is the log of the dose or concentration, and H is the slope factor or Hill slope. The same equation was used for the concentration-inhibition curves but logEC50 was replaced by logIC50 (half-maximal inhibitory concentration).”

[14] = tested on: Clu-GABARs; assay: Voltage-clamp inhibition, summary over the five canine subunit combinations; assay type: cell-based, Canis lupus familiaris; conditions: at 30 μM
Method: as §1, §2, §3

[15] = set-up: method as in earlier work; conditions: mdr1 mutant mouse model; cited from earlier work
[16] = target: Hsa-GABA α1β2γ2 (Homo sapiens, UniProt P14867+P18507+P47870); assay: Two-electrode voltage-clamp inhibition of GABA current, receptor expressed in Xenopus oocytes; conditions: Xenopus oocytes, −80 mV, 60 s pre-exposure, co-applied with GABA 1 µM (near EC10)
Source text: as §4, §1
as §2, with “equations.” for “equations. The concentration-activation curves were fitted using the following equation: Y=100/1+10^H(logEC50-X) where Y is the normalized response, logEC50 is the logarithm of the concentration of agonist eliciting half-maximal current amplitude, X is the log of the dose or concentration, and H is the slope factor or Hill slope. The same equation was used for the concentration-inhibition curves but logEC50 was replaced by logIC50 (half-maximal inhibitory concentration).”

Row | Structure (SMILES) | average GABA current inhibition [1] | inhibitory effect on human and canine GABARs (in words) [3] | IC50 [4] | IC50 [5] | IC50 [6] | IC50 [7] | IC50 [8] | IC50 [9] | IC50 [10] | IC50 [11] | IC50 [12] | IC50 [13] | average GABA current inhibition [14] | further results
1 | O=C(CNC(=O)c1ccc(C2=NOC(c3cc(Cl)cc(C(F)(F)F)c3)(C(F)(F)F)C2)c2ccccc12)NCC(F)(F)F (centres unmarked) [Afoxolaner, afoxolaner] | 59% | partial to high inhibition | 15 µM | 20.5 µM | 11.7 µM | 6.3 µM | 9.9 µM | 3 µM | 20.6 µM | 17.9 µM | 15.7 µM | 7.4 µM | 57% | Cmax ([2]; oral dosing at 2.5 mg/kg, read-out: Cmax (peak concentration in the bloodstream)): 4.7 µM
2 | Cc1cc(C2=NOC(c3cc(Cl)cc(Cl)c3)(C(F)(F)F)C2)ccc1C(=O)NCC(=O)NCC(F)(F)F (centres unmarked) [Fluralaner, fluralaner] | 82% | partial to high inhibition | 4.9 µM | 5.5 µM | 2.2 µM | 2.7 µM | 1.9 µM | 4.3 µM | 2.2 µM | 9.4 µM | 13 µM | 2.3 µM | 76% | brain penetration (in words) [15]: brain penetration of fluralaner was observed; inhibition of human GABARs (in words) ([1]; tested up to 30 μM): high inhibition; maximum plasma concentration ([2]; converted from ng/ml): 6.1 µM; maximum plasma concentration [2]: 3400 ng/mL; IC50 [16]: 5.7 µM; current inhibition ([6]; at 30 μM): > 90%; current inhibition ([7]; at 30 μM): > 90%; current inhibition ([8]; at 30 μM): > 90%
